The assay deals with inflammatory hyperalgesia induced by carrageenan on a rat's paw. Set-up: species or system rat (male Sprague Dawley). As to conditions: in vivo, ip.

Data on 1 compound can be found in patent US9080220B2 (priority 2006, dated 2015).

Like-named read-outs stand apart in the source and are kept apart here.

Turning to `CN1CC[C@]23c4c5ccc(O)c4O[C@H]2[C@@H](O)C=C[C@H]3[C@H]1C5` [morphine], the “protection against hyperalgesia induced by carrageenan” value (0.3 mg/kg) is “does not induce statistically significant protection”. In addition, the “increase of pain threshold following a mechanical stimulus applied to the rats' paws” value reads like this: (1 mg/kg) 65%; (3 mg/kg) 97%.
